Values joined by “and” are separate entries in the source; they are usually repeats but may differ in a detail not shown here. Identical values can stand only once.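 Protocol summary: plate cells (96-well), add compound at 5 concentrations, incubate 48 h, interpolate endpoints linearly. GI50 is the concentration that inhibits growth by half. TGI: total growth inhibition.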

The first experiment relates to MCF7 breast. In words: growth of human tumour cells (NCI), 48 h.
As to `COc1cc(C(=O)N2CCN(c3ncccn3)CC2)c(N)cc1OCc1ccccc1`, the GI50 was more than 100 µM and the TGI is more than 100 µM.
In turn, `CCOc1ccncc1[N+](=O)[O-]` showed a TGI of more than 100 µM.
On the same count and under the same terms, the result for `C=C1C(=O)OC2CC(C)C3(O)CCC(=O)C3(C)CC12` (centres undefined) reads more than 100 µM; that for `Cc1nc2sc3c(c2c(=O)[nH]1)CCCC3`, more than 100 µM.
Regarding `O=C1NC(=O)/C(=C\c2ccccc2)C2=C1CCCC2`, the GI50 is 5.15 µM and the TGI is 25 µM.
With `O=C(Nc1ccc(F)cc1)c1cc(S(=O)(=O)Nc2nc3ccccc3o2)c(SCc2ccccc2)cc1Cl`, the GI50 is 24.8 µM and the TGI worked out at 63.7 µM.
Taken in the same sequence, the figures for `C#COc1cccc(Nc2c(C#N)cnc3ncc(NC(=O)CCl)cc23)c1` were 12.8 µM and more than 62.5 µM.
Consider `CC[C@H]1CN2CCc3cc(OC)c(OC)cc3[C@@H]2C[C@@H]1C[C@H]1NCCc2c1[nH]c1ccc(O)cc21`, for which the TGI is 0.137 µM.
For the compound `CCCCCOc1ccc(/C=N/Nc2cc(C)nc3ccc(Br)cc23)cc1`, the GI50 was 1.71 µM and the TGI is 3.68 µM.

A further experiment concerns MDA-MB-231 breast. In words: growth of human tumour cells (NCI), 48 h.
On to `COc1ccc(O)c(C(=O)c2ccc(C(=O)N[C@H]3CCCNC[C@@H]3NC(=O)c3ccncc3)cc2)c1F`, for which the GI50 is more than 25 µM and the TGI is more than 25 µM.
Regarding `COc1ccc(-n2c(C)cc(-c3ccccc3)c2C)cc1`, the GI50 is 1.56 µM and the TGI was found to be 3.66 µM.
Consider `O[C@H](c1cc(C(F)(F)F)nc2c(C(F)(F)F)cccc12)[C@@H]1CCCCN1`, for which the GI50 was 1.78 µM and the TGI was determined as 4.08 µM.
Taken in the same sequence, the figures for `CCCOc1ccc2sc(NC(=O)OC)nc2c1` were more than 100 µM and more than 100 µM.
For `O=C(O)c1ccc(OCc2ccccc2)c(Cl)c1`, the TGI is more than 100 µM.
Take `OCCCNc1nccc(-c2c(-c3ccc(F)cc3)nn3cc(C(F)(F)F)ccc23)n1`: the GI50 was 24.6 µM and the TGI was more than 25 µM.
In the same order, the values of `O=S(=O)(Nc1ccc(F)cc1F)c1ccc(-c2cnc(C3CC3)o2)cc1` are 1.37 µM and 21.7 µM.
For the compound `O=C(CSC1CCc2ccccc21)N/N=C/c1ccccc1O` (centres undefined), the GI50 was 3.98 µM and the TGI came out at 39.6 µM.
In the same order, the values of `COc1cc(C(=O)N2CCN(c3ncccn3)CC2)c(N)cc1OCc1ccccc1` are more than 100 µM and more than 100 µM.
As to `CCOc1ccncc1[N+](=O)[O-]`, the TGI was more than 100 µM.
Same read-out and setting: the result for `C=C1C(=O)OC2CC(C)C3(O)CCC(=O)C3(C)CC12` (centres undefined) reads more than 100 µM.
The same measure, in the same setting: the result for `Cc1nc2sc3c(c2c(=O)[nH]1)CCCC3` reads more than 100 µM.
`O=C1NC(=O)/C(=C\c2ccccc2)C2=C1CCCC2`: the GI50 was 13.2 µM and the TGI came to 26.4 µM.
Taken in the same sequence, the figures for `O=C(Nc1ccc(F)cc1)c1cc(S(=O)(=O)Nc2nc3ccccc3o2)c(SCc2ccccc2)cc1Cl` were 14.5 µM and 29.5 µM.
In the same order, the values of `C#COc1cccc(Nc2c(C#N)cnc3ncc(NC(=O)CCl)cc23)c1` are 32 µM and more than 62.5 µM.
Take `CC[C@H]1CN2CCc3cc(OC)c(OC)cc3[C@@H]2C[C@@H]1C[C@H]1NCCc2c1[nH]c1ccc(O)cc21`: the GI50 is 0.0153 µM and the TGI was 0.0483 µM.
`CCCCCOc1ccc(/C=N/Nc2cc(C)nc3ccc(Br)cc23)cc1`: the GI50 is 1.77 µM and the TGI came out at 3.41 µM.

For the next experiment, the system named is RPMI-8226 leukemia. Kind of experiment: growth of human tumour cells (NCI), 48 h.
Turning to `COc1ccc(O)c(C(=O)c2ccc(C(=O)N[C@H]3CCCNC[C@@H]3NC(=O)c3ccncc3)cc2)c1F`, the GI50 was 10.3 µM and the TGI was more than 25 µM.
In the same order, the values of `COc1ccc(-n2c(C)cc(-c3ccccc3)c2C)cc1` are 1.49 µM and 5.02 µM.
Regarding `O[C@H](c1cc(C(F)(F)F)nc2c(C(F)(F)F)cccc12)[C@@H]1CCCCN1`, the GI50 is 11.2 µM and the TGI is 42.8 µM.
Consider `CCCOc1ccc2sc(NC(=O)OC)nc2c1`, for which the GI50 was 2.65 µM and the TGI is more than 100 µM.
In turn, `O=C(O)c1ccc(OCc2ccccc2)c(Cl)c1` gave a TGI of more than 100 µM.
For the compound `OCCCNc1nccc(-c2c(-c3ccc(F)cc3)nn3cc(C(F)(F)F)ccc23)n1`, the GI50 was 22.9 µM and the TGI is more than 25 µM.
Taken in the same sequence, the figures for `O=S(=O)(Nc1ccc(F)cc1F)c1ccc(-c2cnc(C3CC3)o2)cc1` were 0.828 µM and 29.8 µM.
Take `O=C(CSC1CCc2ccccc21)N/N=C/c1ccccc1O` (centres undefined): the GI50 is 7.47 µM and the TGI was 38.4 µM.
Taken in the same sequence, the figures for `COc1cc(C(=O)N2CCN(c3ncccn3)CC2)c(N)cc1OCc1ccccc1` were more than 100 µM and more than 100 µM.
`CCOc1ccncc1[N+](=O)[O-]` displayed a TGI of more than 100 µM.
As for `C=C1C(=O)OC2CC(C)C3(O)CCC(=O)C3(C)CC12` (centres undefined), the TGI is 43.1 µM.
On the same count and under the same terms, the result for `Cc1nc2sc3c(c2c(=O)[nH]1)CCCC3` reads more than 100 µM.
For the compound `O=C1NC(=O)/C(=C\c2ccccc2)C2=C1CCCC2`, the GI50 was 1.91 µM.
Turning to `O=C(Nc1ccc(F)cc1)c1cc(S(=O)(=O)Nc2nc3ccccc3o2)c(SCc2ccccc2)cc1Cl`, the GI50 is 17.8 µM and the TGI was 56.8 µM.
In the same order, the values of `C#COc1cccc(Nc2c(C#N)cnc3ncc(NC(=O)CCl)cc23)c1` are more than 62.5 µM and more than 62.5 µM.
On to `CC[C@H]1CN2CCc3cc(OC)c(OC)cc3[C@@H]2C[C@@H]1C[C@H]1NCCc2c1[nH]c1ccc(O)cc21`, for which the GI50 was 0.0272 µM and 0.0305 µM.
`CCCCCOc1ccc(/C=N/Nc2cc(C)nc3ccc(Br)cc23)cc1`: the GI50 is 1.91 µM and the TGI turned out to be 4.17 µM.

Another experiment deals with SK-OV-3 ovarian. In words: growth of human tumour cells (NCI), 48 h.
As for `COc1ccc(O)c(C(=O)c2ccc(C(=O)N[C@H]3CCCNC[C@@H]3NC(=O)c3ccncc3)cc2)c1F`, the GI50 is 5.57 µM and the TGI was more than 25 µM.
